Data: patent publication US20240382499A1, “INDUCERS OF SENESCENCE, IN COMBINATION WITH A SELECTIVE DEATH RECEPTOR 5 (DR5) AGONIST, FOR USE IN A METHOD OF TREATING CANCER” (Stichting Het Nederlands Kanker Instituut-Antoni van …, priority 2021, published 2024)

Key:
[1] = tested on: Alisertib induced senescent and proliferating A549, H2030, H358, HCT116, MDA-MB-231 and MCF-7 cells; test: Viability of alisertib-induced senescent versus proliferating cancer cell line panel (CellTiter-Blue dose response, Incucyte, colony formation); type: cell-based
Protocol: FIG. 2: (A) Western blot analysis of DR4, DR5, cFLIP in A549 cells treated with different senescence inducers for 1 week. VINC served as loading control. (B) A549 cells were firstly treated with 0.5 μM alisertib for 7 days to induce senescence. Afterwards, the senescent cells were suspended from alisertib, re-seeded in a 96-well plate then switched to 200 ng/ml recombinant Lz-TRAIL. The growth curves were measured by Incucyte cell proliferation assay. (C) Alisertib induced senescent and proliferating A549, H2030, H358, HCT116, MDA-MB-231 and MCF-7 cells were seeded into a 384-well plate and treated with Lz-TRAIL for 120 hrs. Cell viability were measured using CellTiter-Blue to generate dose response curve. (D) Senescence associated beta-galactosidase (SA-β-gal) staining in a cell line panel after treated with 0.5 μM alisertib for one week. (E) Cell viability […] was assessed by colony formation assay in the cell line panel. The cells were firstly treated with 0.5 μM alisertib for 7 days to induce senescence. […]
FIG. 3: (A) Human NF-kB pathway protein array analysis on the senescent A549 cells generated with 0.5 μM alisertib for 7 days. […] (C) Cell viability was assessed by colony formation assay in the A549 cells lentiviral shRNAs against DR4 or DR5. […] Cell viability were measured using CellTiter-Blue to generate dose response curve.

cFLIP (CFLAR) = test: RNA sequencing of NEO2734 treated cells; type: cell-based; conditions: 0.5 μM NEO2734 for 1 week; PC9, TFK, EGI and Hep1
Protocol: RNA sequencing was performed on PC9, Hep1, EGI and TFK cells treated with 0.5 μM NEO2734 for 1 week. The expression changes of cFLIP and TNFRSF10B (DR5) were plotted.
To investigate the mechanism of this synergy effect from this drug combination, RNA sequencing was performed on NEO2734 treated cells (using four independent cell models PC9, TFK, EGI and Hep1) to identify genes that might be critical for the DR5 signaling pathway. […] This might explain why BRD2 inhibition may enhance the responsiveness of conatumumab.

[2] = tested on: PC9, TFK, EGI and Hep 1 cancer cells, and BJ and Rpe1 primary cells; test: Dose-response curves (cell titer blue) for NEO2734 in the presence of conatumumab; type: cell-based, human; conditions: 0.5 microgram/ml conatumumab, 96 hours
Source text: FIG. 6: (A) Dose-response curves determined by cell viability using cell titer blue for NEO2734 in the presence of 0.5 microgram/ml conatumumab. Shown are dose response curves for PC9, TFK, EGI and Hep 1 cancer cells, and BJ and Rpe1 primary cells. (B) RNA sequencing results.
PC9 human lung cancer cells, Panc1 human pancreatic cancer cell line of ductal cell origin, Hep3B human epithelial hepatoma cells, H1975 human epithelial lung cancer cells, TFK bile duct cancer cells, EGI bile duct cancer cells, BJ human foreskin fibroblast cells and Rpe1 human retina pigmented epithelial cells were obtained from ATCC.
Cells were seeded into 384 well plates. Drugs were added after 24 hours.
To validate this finding, a BRD2 inhibitor, NEO2734, was used to combine with a DR5 activation antibody (conatumumab) and to test the combination in multiple cancer models, including a pancreatic cancer line of ductal cell origin Panc1, two epithelial hepatoma cell lines Hep3B and Hep1, two bile duct cancer cell lines TFK and EGI, two epithelial cancer lines PC9 and H1975. In addition, two primary cell lines BJ and Rpe1 were used to determine whether this drug combination would be less harmful to healthy cells.

[3] = tested on: proliferating and senescent A549 and Hep1 cells; test: Colony formation of proliferating and therapy-induced senescent A549 and Hep1 cells with NEO2734 and conatumumab; type: cell-based
Protocol: FIG. 8: Cell viability was assessed by colony formation assay using low doses of NEO2734 and conatumab. (A) Cell viability was assessed by a colony formation assay using low dose 0.25 μM of NEO2734 and 0.125 μg/ml conatumumab on Hep1 cells made senescent by one-week treatment of 0.5 μM alisertib, 1 μM barasertib, 50 nM CFI-400945 or 2 μM Etoposide. (B) Colony formation using low dose 0.25 μM of NEO2734 and 0.125 μg/ml conatumumab on Hep1, 0.25 μM of NEO2734 and 1 μg/ml conatumumab on A549 cells made senescent by one-week treatment of different senescence inducers (0.5 μM PF-06873600, 100 nM doxorubicin, 1 μM TAS-119 or combination of 5 nM trametinib plus 0.5 μM palbociclib.
Cells were treated with 0.5 μM alisertib for 7 days to induce senescence. These cells were seeded into 12 well plates. After 24 hours, the cells were treated with 0.5 μM NEO 2734 and indicated doses of conatumumab for 96 hours. Cells were fixed with 4% paraformaldehyde after 96 hours of drug treatment. The plates were stained with 2 mL 0.5% (w/v) crystal violet in H2O and photographed. Further, colony formation was investigated using 0.25 μM of NEO2734 and 0.125 μg/ml conatumumab on Hep1 cells made senescent by one-week treatment of 0.5 μM alisertib, 1 μM barasertib, 50 nM CFI-400945 or 2 μM Etoposide. Furthermore, colony formation was investigated using 0.25 μM of NEO2734 and 1 μg/ml conatumumab on A549 cells made senescent by one-week treatment of different senescence inducers, namely 0.5 μM PF-06873600, 100 nM doxorubicin or combination of 5 nM trametinib plus 0.5 μM palbociclib. Doxorubicin, PF-06873600, palbociclib and trametinib were purchased from Selleckchem (Houston, TX, USA).

Hep1 liver cancer cells = test: Tumor growth of Hep1 xenografts in Balb/c nude mice; type: in vivo; conditions: Hep1 xenograft; 30 mg/kg alisertib oral gavage, 5 μg conatumumab intraperitoneal, week days
Protocol: (§1) FIG. 4: (A) Tumor growth of Hep1 parental cells in the flanks of Balb/c nude mice subcutaneously injected with 1*10^7 cells. When tumors reached approximately 200 mm^3, assigned to either control, 30 mg/kg alisertib (oral gavage), 5 μg conatumumab (intraperitoneal injection) and the combination. The drugs were administrated during week days and suspended during the weekend. (B) Tumor growth of A549 parental cells in the flanks of Balb/c nude mice subcutaneously injected with 5*10^6 cells. When tumors reached approximately 200 mm3, assigned to either control, 30 mg/kg alisertib (oral gavage), 10 μg conatumumab (intraperitoneal injection) and the combination. The drugs were administrated during week days and suspended during the weekend. (C-E) Cell viability was assessed by colony formation assay in the A549 and Hep1 cells. The cells were firstly treated with different senescence inducers for 7 days to induce senescence. Afterwards, the senescent cells were suspended from the senescence inducers then re-seeded in a 12-well plate and switched to conatumumab or Lz-TRAIL treatment for 5 days. Proliferating cells were taken as a control. At the end of assay, cells were fixed, stained, and photographed.
(§2) To test the treatment in vivo, we engrafted Hep1 liver cancer cells and A549 lung cancer cells into immunodeficient nude mice. […]

A549 lung cancer cells = test: Tumor growth of A549 xenografts in Balb/c nude mice; type: in vivo; conditions: A549 xenograft; 30 mg/kg alisertib oral gavage, 10 μg conatumumab intraperitoneal, week days
Protocol: as §1, §2

TNFRSF10B (DR5), DR4 = test: RNA sequencing of a senescent cell line panel, death receptor expression; type: cell-based; conditions: data not shown
Protocol: RNA sequencing was performed on A549 cells treated with 0.5 alisertib μM for 1 week, and followed by gene set enrichment analysis (GSEA) of alisertib treated cells versus untreated control for multiple independent NF-KB signaling gene sets. (B) Real-time PCR analysis of DR4, DR5, cFLIP, TRAIL in A549 cells treated with 0.5 μM alisertib, 100 nM CFI-400945 and 2 μM Etoposide. GAPDH served as control.

[4] = tested on: senescent A549 and Hep1 cells; test: Colony formation of A549 and Hep1 cells made senescent with other senescence inducers; type: cell-based; conditions: A549 and Hep1 made senescent with PLk4 inhibitor, etoposide and barasertib; treatment 5 days
Protocol: as §1

senescent cells = test: Killing of senescent cells by conatumumab in vitro, time; type: cell-based
PC9, Hep1 and A549 = conditions: 0.5 microgram/ml conatumumab
Protocol: FIG. 7: (A) Cell viability for the BRD2 inhibitor iBET in the presence of 0.5 microgram/ml conatumumab. […] Cells were seeded into 384 well plates. Drugs were added after 24 hours. Cell viability was measured using cell titer blue after 96 hours of drug treatment.

CC1(C)CCC(c2ccc(Cl)cc2)=C(CN2CCN(c3ccc(C(=O)NS(=O)(=O)c4ccc(N[C@H](CCN5CCOCC5)CSc5ccccc5)c(S(=O)(=O)C(F)(F)F)c4)cc3)CC2)C1 [ABT-263]
senolytic effect in cell line panel (colony formation), TRAIL compared with ABT-263 ([1]; alisertib-induced senescent cells, 12-well plate): resistant

Cc1cc(-c2ccc3nc(C4CCOCC4)n(CCOC(F)(F)F)c3c2)cn(C)c1=O [NEO2734, 1,3-dimethyl-5-[2-(oxan-4-yl)-3-[2-(trifluoromethoxy)ethyl]benzimidazol-5-yl]pyridin-2-one]
cFLIP (CFLAR) expression change (cFLIP (CFLAR)): highly down-regulated
effect on conatumumab responsiveness in primary cells (cell viability) ([2]; BJ and Rpe1 primary cells): not in primary cells
effect on conatumumab responsiveness in cancer cells (cell viability) ([2]; cancer cells): enhance the conatumumab responsiveness
effect on senolytic effect of DR5 activation (colony formation) ([3]; alisertib-induced senescent and proliferating A549 (1 μg/ml conatumumab) and Hep1 (0.125 μg/ml conatumumab)): improve the senolytic effect of DR5 activation

COc1cc(Nc2ncc3c(n2)-c2ccc(Cl)cc2C(c2c(F)cccc2OC)=NC3)ccc1C(=O)O [alisertib, 4-[[9-chloro-7-(2-fluoro-6-methoxyphenyl)-5H-pyrimido[5,4-d][2]benzazepin-2-yl]amino]-2-methoxybenzoic acid]
tumor growth (Hep1 liver cancer cells): limited tumor growth inhibition
tumor growth (A549 lung cancer cells): limited tumor growth inhibition
DR4 expression in induced senescent cells (TNFRSF10B (DR5), DR4): not DR4
TNFRSF10B (DR5) expression in induced senescent cells (TNFRSF10B (DR5), DR4): upregulated

COc1cc([C@@H]2c3cc4c(cc3[C@@H](O[C@@H]3O[C@@H]5CO[C@@H](C)O[C@H]5[C@H](O)[C@H]3O)[C@H]3COC(=O)[C@H]23)OCO4)cc(OC)c1O [etoposide, (5S,5aR,8aR,9R)-5-[[(2R,4aR,6R,7R,8R,8aS)-7,8-dihydroxy-2-methyl-4,4a,6,7,8,8a-hexahydropyrano[3,2-d][1,3]dioxin-6-yl]oxy]-9-(4-hydroxy-3,5-dimethoxyphenyl)-5a,6,8a,9-tetrahydro-5H-[2]benzofuro[6,5-f][1,3]benzodioxol-8-one]
DR4 expression in induced senescent cells (TNFRSF10B (DR5), DR4): not DR4
TNFRSF10B (DR5) expression in induced senescent cells (TNFRSF10B (DR5), DR4): upregulated

conatumumab: DR5 agonistic IgG1 antibody; purchased from Creative Biolabs, or generated by expression of SEQ 1 and SEQ 3
tumor growth (Hep1 liver cancer cells): limited tumor growth inhibition
tumor growth (A549 lung cancer cells): limited tumor growth inhibition
senolytic effect (colony formation) [4]: strong senolytic effect
time in which senescent cells are killed (senescent cells): 24 h
killing of senescent versus proliferating cells (cell viability) ([1]; alisertib 0.5 μM 7 days induced senescence, treatment 120 hrs, lung, breast, colon and liver cancer models): selective killing of senescent cells
dosage that will not lead to a significant impact on alisertib induced senescent cells ([3]; A549, titration): 1 µg/mL
dosage that will not lead to a significant impact on alisertib induced senescent cells ([3]; Hep1, titration): 0.125 µg/mL

iBET
effect on conatumumab responsiveness (cell viability) (PC9, Hep1 and A549): efficiently enhance the responsiveness of conatumumab
